The assay concerns P388 leukemia ip, CD2F1 mice, survival T/C. In words: NCI In Vivo Anticancer Drug Screen. Data for tumor model P388 Leukemia (intraperitoneal) in CD2F1 (CDF1) mice. The note with it: endpoint: median survival time, higher = longer survival. The method, boiled down:
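Mice carrying the transplanted tumor received test compound or vehicle. Survival was recorded in each group, and the value is the treated-group measurement divided by that of the vehicle-treated control group.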

Where [1] appears, read: dose: 60.0 mg/kg/injection, schedule: Q01DX005 (ip), vehicle: saline with Tween-80.
Where [2] appears, read: dose: 120.0 mg/kg/injection, schedule: Q01DX005 (ip), vehicle: saline with Tween-80.
The mark [3] stands for this setting: dose: 240.0 mg/kg/injection, schedule: Q01DX005 (ip), vehicle: saline with Tween-80.
The mark [4] stands for this setting: dose: 25.0 mg/kg/injection, schedule: Q01DX009 (ip), vehicle: saline with Tween-80.
Where [5] appears, read: dose: 50.0 mg/kg/injection, schedule: Q01DX009 (ip), vehicle: saline with Tween-80.
Where [6] appears, read: dose: 100.0 mg/kg/injection, schedule: Q01DX009 (ip), vehicle: saline with Tween-80.

Each structure is given as a SMILES string. Inconclusive results and toxic doses are left out.

As to `COc1ccc(C(=O)/C=C/c2c[nH]c3ccccc23)c(O)c1`, the T/C by setting is: (dose: 15.0 mg/kg/injection, schedule: Q01DX005 (ip), vehicle: saline with Tween-80) 96 % of control; (dose: 30.0 mg/kg/injection, schedule: Q01DX005 (ip), vehicle: saline with Tween-80) 96 % of control; under setting [1], 96 % of control; under setting [2], 92 % of control; under setting [3], 96 % of control.

`O=S(=O)(Nc1ccc2ccc(NS(=O)(=O)N3CCCCC3)cc2c1)N1CCCCC1`: the T/C (dose: 50.0 mg/kg/injection, schedule: Q01DX005 (ip), vehicle: saline with Tween-80) is 104 % of control; the T/C (dose: 100.0 mg/kg/injection, schedule: Q01DX005 (ip), vehicle: saline with Tween-80) is 95 % of control; the T/C (dose: 200.0 mg/kg/injection, schedule: Q01DX005 (ip), vehicle: saline with Tween-80) was 100 % of control.

Consider `Clc1cccc(Cl)c1CSc1nc2ccccc2n2cccc12`, for which the T/C was 102 % of control (dose: 50.0 mg/kg/injection, schedule: Q01DX009 (ip), vehicle: Klucel (hydroxypropylcellulose) (HPC)); 105 % of control (dose: 100.0 mg/kg/injection, schedule: Q01DX009 (ip), vehicle: Klucel (hydroxypropylcellulose) (HPC)); 105 % of control (dose: 200.0 mg/kg/injection, schedule: Q01DX009 (ip), vehicle: Klucel (hydroxypropylcellulose) (HPC)).

Regarding `Cc1cc(C(=O)NC(C)c2ccc(S(=O)(=O)NC(=O)NC3CCCCC3)cc2)no1` (stereo not drawn), the T/C runs as follows: (dose: 50.0 mg/kg/injection, schedule: Q04DX002 (ip), vehicle: Klucel (hydroxypropylcellulose) (HPC)) 99 % of control; (dose: 100.0 mg/kg/injection, schedule: Q04DX002 (ip), vehicle: Klucel (hydroxypropylcellulose) (HPC)) 100 % of control; (dose: 200.0 mg/kg/injection, schedule: Q04DX002 (ip), vehicle: Klucel (hydroxypropylcellulose) (HPC)) 97 % of control.

For `CCOc1cc(C)c(C(CC(=O)O)CC(=O)N(CCCl)CCCl)cc1C(C)C` (stereo not drawn), the T/C (dose: 100.0 mg/kg/injection, schedule: Q04DX003 (ip), vehicle: saline) was 107 % of control; the T/C (dose: 200.0 mg/kg/injection, schedule: Q04DX003 (ip), vehicle: saline) was 100 % of control; the T/C (dose: 400.0 mg/kg/injection, schedule: Q04DX003 (ip), vehicle: saline) is 108 % of control.

Take `CC(=O)C(=N/O)/C(C)=N/NC(=O)CC#N`: the T/C reads like this: (dose: 100.0 mg/kg/injection, schedule: Q04DX009 (ip), vehicle: saline) 101 % of control; (dose: 200.0 mg/kg/injection, schedule: Q04DX009 (ip), vehicle: saline) 100 % of control.

In the case of `COc1ccc(C(=S=O)N(C)c2ccccc2)cc1`, the T/C was 100 % of control (dose: 50.0 mg/kg/injection, schedule: Q01DX009 (ip), vehicle: saline); 100 % of control (dose: 100.0 mg/kg/injection, schedule: Q01DX009 (ip), vehicle: saline); 90 % of control (dose: 200.0 mg/kg/injection, schedule: Q01DX009 (ip), vehicle: saline).

Regarding `CN1c2ccccc2SC12C(=S)N(c1ccccc1)C(=S)N2c1ccccc1` (stereo not drawn), the T/C was 98 % of control (dose: 100.0 mg/kg/injection, schedule: Q04DX002 (ip), vehicle: saline with Tween-80); 90 % of control (dose: 200.0 mg/kg/injection, schedule: Q04DX002 (ip), vehicle: saline with Tween-80); 86 % of control (dose: 400.0 mg/kg/injection, schedule: Q04DX002 (ip), vehicle: saline with Tween-80).

Turning to `CCOC(=O)C1=C(c2ccccc2)SC(c2ccccc2)N(C(C)C)C1=O` (stereo not drawn), the T/C was 106 % of control under setting [4], 107 % of control under setting [5] and 100 % of control under setting [6].

For the molecule `O=c1[nH]ccc2occc12`, the T/C under setting [4] is 100 % of control, the T/C under setting [5] is 100 % of control and the T/C under setting [6] is 109 % of control.

On to `CC(NCCCSc1ccccc1)C(O)c1ccc(O)cc1` (stereo not drawn), for which the T/C reads like this: under setting [4], 94 % of control; under setting [5], 100 % of control.

As for `Cn1c(SCC(=O)O)nnc1C1CCC(=O)N1Cc1ccccc1` (stereo not drawn), the T/C by setting is: under setting [1], 110 % of control; under setting [2], 103 % of control; under setting [3], 98 % of control.

As to `COc1ccc(I)c(C=NC2CCCCC2)c1C`, the T/C was 98 % of control (dose: 50.0 mg/kg/injection, schedule: Q01DX005 (ip), vehicle: distilled water + Tween-80 + alcohol); 97 % of control (dose: 100.0 mg/kg/injection, schedule: Q01DX005 (ip), vehicle: distilled water + Tween-80 + alcohol); 98 % of control (dose: 200.0 mg/kg/injection, schedule: Q01DX005 (ip), vehicle: distilled water + Tween-80 + alcohol).

As for `O=C1OC2C3COC(=O)c4cc(O)c(O)c(O)c4-c4c(cc(O)c(O)c4O)C(=O)OC2C(OC(=O)c2cc(O)c(O)c4c2[C@@H]2C1=CC(=O)[C@](O)(O4)C2(O)O)C(OC(=O)c1cc(O)c(O)c(O)c1)O3` (stereo partly drawn), the T/C was 106 % of control (dose: 6.25 mg/kg/injection, schedule: Q01DX005 (ip), vehicle: DMSO); 106 % of control (dose: 12.5 mg/kg/injection, schedule: Q01DX005 (ip), vehicle: DMSO); 115 % of control (dose: 25.0 mg/kg/injection, schedule: Q01DX005 (ip), vehicle: DMSO).

As for `CCOC(=O)c1cnc2cc(C)cc(C)c2c1Nc1ccc2c(c1)OCO2`, the T/C was 100 % of control (dose: 60.0 mg/kg/injection, schedule: Q01DX005 (ip), vehicle: Klucel + Tween-80); 92 % of control (dose: 120.0 mg/kg/injection, schedule: Q01DX005 (ip), vehicle: Klucel + Tween-80); 87 % of control (dose: 240.0 mg/kg/injection, schedule: Q01DX005 (ip), vehicle: Klucel + Tween-80).

On to `OCC1(OC2OC(CF)C(O)C(O)C2O)OC(CF)C(O)C1O` (stereo not drawn), for which the T/C is 102 % of control (dose: 60.0 mg/kg/injection, schedule: Q01DX005 (ip), vehicle: saline) and 101 % of control (dose: 120.0 mg/kg/injection, schedule: Q01DX005 (ip), vehicle: saline).

In the case of `OCc1ccn2c1CCC2`, the T/C is 107 % of control (dose: 6.25 mg/kg/injection, schedule: Q01DX009 (ip), vehicle: water); 109 % of control (dose: 12.5 mg/kg/injection, schedule: Q01DX009 (ip), vehicle: water); 110 % of control (dose: 25.0 mg/kg/injection, schedule: Q01DX009 (ip), vehicle: water); 115 % of control (dose: 50.0 mg/kg/injection, schedule: Q01DX009 (ip), vehicle: water); 109 % of control (dose: 100.0 mg/kg/injection, schedule: Q01DX009 (ip), vehicle: water).

`Fc1ccc(N(c2nc(Cl)nc(Cl)n2)c2nc(Cl)nc(Cl)n2)cc1`: the T/C was 113 % of control (dose: 12.5 mg/kg/injection, schedule: Q01DX009 (ip), vehicle: saline with Tween-80); 100 % of control under setting [4]; 113 % of control under setting [5].

Regarding `c1ccc(-c2cc(-c3cc(-c4ccccn4)[nH]n3)n[nH]2)nc1`, the T/C reads like this: (dose: 60.0 mg/kg/injection, schedule: Q01DX005 (ip), vehicle: saline + Tween-80 + alcohol) 91 % of control; (dose: 120.0 mg/kg/injection, schedule: Q01DX005 (ip), vehicle: saline + Tween-80 + alcohol) 94 % of control; (dose: 240.0 mg/kg/injection, schedule: Q01DX005 (ip), vehicle: saline + Tween-80 + alcohol) 104 % of control.

As for `N#CC(C#N)=NNc1ccc([N+](=O)[O-])cc1Cl`, the T/C (dose: 6.25 mg/kg/injection, schedule: Q01DX009 (ip), vehicle: Klucel (hydroxypropylcellulose) (HPC)) was 103 % of control and the T/C (dose: 12.5 mg/kg/injection, schedule: Q01DX009 (ip), vehicle: Klucel (hydroxypropylcellulose) (HPC)) is 103 % of control.

With `CCOc1ccccc1NC(=O)/C(Cl)=C(\Cl)C(=O)O`, the T/C under setting [1] is 109 % of control and the T/C under setting [2] was 107 % of control.

As to `Clc1ccc(SSN2CCOCC2)cc1`, the T/C was 100 % of control (dose: 3.12 mg/kg/injection, schedule: Q01DX009 (ip), vehicle: saline); 109 % of control (dose: 6.25 mg/kg/injection, schedule: Q01DX009 (ip), vehicle: saline); 102 % of control (dose: 12.5 mg/kg/injection, schedule: Q01DX009 (ip), vehicle: saline).

In the case of `CCCCN1C(=O)/C(=C/c2ccc(OC)cc2)SC1=S`, the T/C is 100 % of control under setting [5]; 94 % of control under setting [6]; 90 % of control (dose: 200.0 mg/kg/injection, schedule: Q01DX009 (ip), vehicle: saline with Tween-80).
